Reference: article PMC3933800, “Synthesis, Anti-Inflammatory and Anti- Nociceptive Activities and Cytotoxic Effect of Novel Thiazolidin-4-ones Derivatives as Selective Cyclooxygenase (COX-2) Inhibitors” (Iranian Journal of Basic Medical Sciences, 2013)

What was measured:
[1] = system: MCF-7 (human breast cancer); assay: MTT cytotoxicity assay, MCF-7; format: cell-based; settings: MCF7, means of three experiments, 24 hr, read-out: IC50 MCF-7 (anti-proliferative activity)
Method: (§1) Human tumor cell lines of two different histological origins were used: Caco-2 (human colorectal cancer) and MCF-7 (human breast cancer) which were purchased from the National Cell bank of Pasteur Institute of Iran, Tehran, Iran.
(§2) Stock cell cultures were grown in RPMI 1640 medium (Gibco, USA) supplemented with 10% fetal bovine serum (FBS) and 100 unit per ml of penicillin-streptomycin (Sigma, USA) at 37°C in humidified incubator with 5% CO2 atmosphere. After three day incubation, the cells were detached using 0.25% Trypsin-0.05% EDTA solution (Biogene, Iran), and resuspended in RPMI 1640 medium containing 10% FBS. Cell count and viability was determined by Trypan blue staining followed by hemocytometry.
(§3) After incubation periods, 3-(4,5-Dimethylthiazol-2-yl)-2,5-diphenyltetrazolium bromide , MTT (Sigma, USA) was added to each well at the concentration of 0.5 mg/ml. Subsequently, microtiter plate was incubated for an additional 3 hr at 37°C and each medium was then removed prior to the addition of dimethyl sulfoxide to dissolve the formazan crystal formed by viable cells.

[2] = system: Caco-2 (human colorectal cancer); assay: MTT cytotoxicity assay, Caco-2; format: cell-based; settings: means of three experiments, 24 hr, read-out: IC50 Caco-2 (anti-proliferative activity)
Method: as §1, §2, §3

mice [3] = assay: Xylene-induced ear edema test; format: in vivo, BALB/c mice; settings: Mus musculus, IP 30 min before xylene, ears weighed after 2 hr
Method: (§4) Animal experiments were carried out using 20-30 g male BALB/c mice purchased from Razi Institute, Mashhad, Iran. Animals were kept in plastic cages at room temperature of 21±2°C and 12 hr light/dark cycle. All experiments were performed according to the National Institute of Health guidelines for the care and use of laboratory animals and to the European Community Directive for the Care and use of Laboratory Animals of 1986 (86/609/EEC), and approved by our Institution’s Animal Care Committee.
The effect of the analogues against acute inflammation was studied using xylene-induced ear edema test in mice.
Thirty minutes later, edema was induced in each group by applying 0.03 ml of xylene to the inner surface of the right ear. After 2 hr, the mice were sacrificed under ether anesthesia and both ears were removed, sized and weighed. The increase in weight caused by the irritant was measured by subtracting the weight of the untreated left ear section from that of the treated right ear sections ([12]).

ovine COX-2 = target: T1, ovine COX-2 (Ovis aries, UniProt P79208); assay: biochemical; settings: mean of two determinations
T1 construct: purchased Cayman Chemical Company 760111
T1 sequence (P79208 17-603): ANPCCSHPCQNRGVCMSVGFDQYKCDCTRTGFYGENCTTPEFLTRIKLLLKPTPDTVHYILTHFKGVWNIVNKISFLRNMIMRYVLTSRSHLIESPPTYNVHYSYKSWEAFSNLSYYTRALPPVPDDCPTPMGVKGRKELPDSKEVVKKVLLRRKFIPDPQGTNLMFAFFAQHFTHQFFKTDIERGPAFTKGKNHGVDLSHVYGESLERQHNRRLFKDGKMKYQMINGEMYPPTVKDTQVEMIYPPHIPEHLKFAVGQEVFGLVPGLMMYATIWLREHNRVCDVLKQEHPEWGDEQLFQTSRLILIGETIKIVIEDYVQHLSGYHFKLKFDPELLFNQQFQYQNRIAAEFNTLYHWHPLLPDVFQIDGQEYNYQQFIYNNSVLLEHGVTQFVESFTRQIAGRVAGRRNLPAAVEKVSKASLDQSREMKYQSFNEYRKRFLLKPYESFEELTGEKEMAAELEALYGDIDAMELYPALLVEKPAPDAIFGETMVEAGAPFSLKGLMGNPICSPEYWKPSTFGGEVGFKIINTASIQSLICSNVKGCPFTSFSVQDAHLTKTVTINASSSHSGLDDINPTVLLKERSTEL
From the text: (§5) The same kit for determination of COX-1 and COX-2 inhibition was used by us previously ([11]).

Caco-2 cells = format: cell-based; settings: IC50 concentration, 24 hr; untreated control 9.9
Method: (§6) A suspension of untreated Caco-2 or MCF-7cells (1×10^6 cells/ml) was used as negative control. Both control and test samples of cell cultures were incubated for 24 hr at 37°C and 5% CO2 atmosphere. After 24 hr incubation, adherent cells were collected, washed three times with phosphate-citrate buffer (0.2 M, pH 7.8) and fixed for 24 hr with cool ethanol at 4°C. Propidium iodide was then added to a final concentration of 50 µg/ml for DNA staining and the cells were incubated and light protected at room temperature for 3 hr. The fluorescence of the cells was analyzed in a FACScan flow cytometer (Becton Dickinson, USA). The obtained cytometric data were analyzed using WinMDI 2.8 software (The Scripps Research Institute, USA).

mice [4] = assay: Acetic acid-induced writhing test; format: in vivo, BALB/c mice; settings: Mus musculus, IP, acetic acid 0.7% 1 hr after compound, writhing counted 30 min
Method: as §4
The nociceptive responses in mice were investigated using writhing test. […] The number of abdominal constrictions (writhing episode) seen in treated animals was counted during a 30 min period ([12]). Celecoxib and normal saline was respectively used as positive and negative control.

MCF-7 cells = assay: Apoptosis assay (propidium iodide flow cytometry, sub-diploid cells), MCF-7; format: cell-based, human; settings: IC50 concentration, 24 hr; untreated control 12.26
Method: as §6

ovine COX-1 = target: T2, ovine COX-1 (Ovis aries, UniProt P05979); assay: biochemical; settings: mean of two determinations
T2 construct: purchased Cayman Chemical Company 760111
T2 sequence (P05979 25-600): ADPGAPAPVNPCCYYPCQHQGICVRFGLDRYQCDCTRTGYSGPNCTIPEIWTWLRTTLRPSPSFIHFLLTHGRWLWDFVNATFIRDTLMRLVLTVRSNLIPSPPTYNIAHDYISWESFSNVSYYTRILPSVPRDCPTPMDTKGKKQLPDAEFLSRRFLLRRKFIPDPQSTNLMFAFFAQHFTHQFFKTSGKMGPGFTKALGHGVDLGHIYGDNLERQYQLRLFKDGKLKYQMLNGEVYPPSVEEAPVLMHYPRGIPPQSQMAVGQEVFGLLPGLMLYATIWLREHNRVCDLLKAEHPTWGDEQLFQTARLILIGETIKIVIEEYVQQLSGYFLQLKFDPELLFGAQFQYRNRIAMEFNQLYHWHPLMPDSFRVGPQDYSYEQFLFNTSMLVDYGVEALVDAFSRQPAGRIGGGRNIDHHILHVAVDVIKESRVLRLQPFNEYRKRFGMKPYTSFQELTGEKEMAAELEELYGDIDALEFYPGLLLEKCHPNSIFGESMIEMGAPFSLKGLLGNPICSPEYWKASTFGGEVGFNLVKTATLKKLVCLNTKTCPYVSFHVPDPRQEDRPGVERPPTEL
From the text: as §5

| IC50 (ovine COX-2) | melting point | IC50 (ovine COX-1) | SMILES | IC50 [1] | IC50 [2] | ED50 (mice [3]) | Apoptosis% (percent sub-diploid cells), Caco-2 (Caco-2 cells) | ED50 (mice [4]) | Apoptosis% (percent sub-diploid cells), MCF-7 (MCF-7 cells) |
| --- | --- | --- | --- | --- | --- | --- | --- | --- | --- |
| 0.71 µM | 97 to 98 °C | – | CCSc1ncc(C2SCC(=O)N2c2ccc(Cl)cc2)n1Cc1ccccc1 (centres unmarked) [2b, 2-(1-benzyl-2-ethylthio-5-imidazolyl)-3-(4-chloro-phenyl)-1,3-thiazolidin-4-one] | 110 µM | 82.3 µM | 73.6 mg/kg | 54.4% | 39.9 mg/kg | 45.9% |
| – | – | – | Cc1ccc(-c2cc(C(F)(F)F)nn2-c2ccc(S(N)(=O)=O)cc2)cc1 [Celecoxib, celecoxib, reference compound] | 76.3 µM | 50.1 µM | – | 60% | – | 59.1% |
| 0.82 µM | 95 to 96 °C | 15.6 µM | CSc1ncc(C2SCC(=O)N2c2ccc(Cl)cc2)n1Cc1ccccc1 (centres unmarked) [2a, 2-(1-benzyl-2-methylthio-5-imidazolyl)-3-(4-chloro-phenyl)-1,3-thiazolidin-4-ones] | 121 µM | 106 µM | 68.3 mg/kg | 35% | 15.1 mg/kg | – |
| – | 94 to 95 °C | – | CSc1ncc(C2SCC(=O)N2c2ccc(Cl)cc2)n1Cc1ccc(F)cc1 (centres unmarked) [2c, 2-[1-(4-fluorobenzyl)-2-methylthio-5-imidazolyl]-3-(4-chlorophenyl)-1,3-thiazolidin-4-ones] | – | – | 64 mg/kg | – | 8.76 mg/kg | – |
